Measurements as given in ChEMBL document CHEMBL2073755, “TP-search Transporter Database” (Jpn Pharmacol Ther, 2001).

T1: Solute carrier family 22 member 7 (Rattus norvegicus, UniProt Q5RLM2)
T1 sequence (Q5RLM2 whole entry): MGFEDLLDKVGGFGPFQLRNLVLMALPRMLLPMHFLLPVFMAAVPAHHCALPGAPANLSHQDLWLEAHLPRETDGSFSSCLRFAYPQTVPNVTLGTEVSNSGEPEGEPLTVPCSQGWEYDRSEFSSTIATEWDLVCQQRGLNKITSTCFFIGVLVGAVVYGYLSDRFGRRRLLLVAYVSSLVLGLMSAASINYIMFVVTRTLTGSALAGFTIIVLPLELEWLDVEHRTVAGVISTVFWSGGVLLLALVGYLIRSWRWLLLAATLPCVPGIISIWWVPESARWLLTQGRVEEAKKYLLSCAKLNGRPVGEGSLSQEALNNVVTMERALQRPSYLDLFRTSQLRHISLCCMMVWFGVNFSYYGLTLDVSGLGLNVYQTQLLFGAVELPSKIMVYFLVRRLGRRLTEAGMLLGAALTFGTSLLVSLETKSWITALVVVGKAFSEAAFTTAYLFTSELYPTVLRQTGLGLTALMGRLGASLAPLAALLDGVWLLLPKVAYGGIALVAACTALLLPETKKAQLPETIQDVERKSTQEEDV

T2: Oat2 (Solute carrier family 22 member 7) (Rattus norvegicus, UniProt Q5RLM2)
T2 sequence (Q5RLM2 whole entry): T1 sequence (Q5RLM2 whole entry)

B1: Solute carrier family 22 member 7 (Rattus norvegicus) (protein)
chain: T1 sequence (Q5RLM2 whole entry)

What was measured:
[1] = molecular target: T1, Solute carrier family 22 member 7; assay: TP_TRANSPORTER: inhibition of Salicylate uptake in Oat2-expressing LLC PK1 cells; type: functional, cell-based
[2] = molecular target: T2, Oat2 (Solute carrier family 22 member 7); assay: (§1) TP_TRANSPORTER: uptake in Oat2-expressing LLC PK1 cells; type: functional, cell-based; conditions: pig
[3] = substrate: Nc1ccn([C@H]2CC[C@@H](CO)O2)c(=O)n1; assay: as §1; type: functional, cell-based
[4] = substrate: O=C(O)c1ccccc1O; assay: cells, lysate or membranes named

| Molecule | Ki [1] [nM] | Km [2] [µM] | also measured |
| --- | --- | --- | --- |
| COc1ccc(Cl)cc1C(=O)NCCc1ccc(S(=O)(=O)NC(=O)NC2CCCCC2)cc1 [GLYBURIDE] | 12300 |  |  |
| CC1(C)C(/C=C/C=C/C=C/C=C2\N(CCCCS(=O)(=O)O)c3ccc4ccccc4c3C2(C)C)=[N+](CCCCS(=O)(=O)[O-])c2ccc3ccccc3c21 [INDOCYANINE GREEN] | 1150 |  |  |
| COc1ccc2c(c1)c(CC(=O)O)c(C)n2C(=O)c1ccc(Cl)cc1 [INDOMETHACIN] |  | 0.366 |  |
| CC(C(=O)O)c1cccc(C(=O)c2ccccc2)c1 (configuration not stated) [KETOPROFEN] | 1840 |  |  |
| Cc1cn([C@H]2C[C@H](N=[N+]=[N-])[C@@H](CO)O2)c(=O)[nH]c1=O [ZIDOVUDINE] |  | 26 |  |
| B1 |  |  | Km [3]: 3000 µM; Km [4]: 81.2 µM |
